In US20250099423A1, “PIPERAZINE-BASED AGONISTS OF LFA-1 AND VLA-4” (Texas Heart Institute, priority 2021, published 2025):

What was measured:
α4β1/VCAM-1 = target: T1, α4β1/VCAM-1 (Homo sapiens, UniProt P05556+P13612); test: Static cell adhesion assay, Jurkat cells on VCAM-1 (α4β1/VCAM-1); assay type: cell-based; details: ratio compound activity/control THI0019 (average 33 μM) run on the same plate
T1 construct: The Jurkat (VCAM-1 assays) and HSB (ICAM-1 assays) cell lines were obtained from American Type Culture Collection; endogenous in cells; host or cells: Jurkat cells (ATCC)
T1 sequence (P13612 34-1032): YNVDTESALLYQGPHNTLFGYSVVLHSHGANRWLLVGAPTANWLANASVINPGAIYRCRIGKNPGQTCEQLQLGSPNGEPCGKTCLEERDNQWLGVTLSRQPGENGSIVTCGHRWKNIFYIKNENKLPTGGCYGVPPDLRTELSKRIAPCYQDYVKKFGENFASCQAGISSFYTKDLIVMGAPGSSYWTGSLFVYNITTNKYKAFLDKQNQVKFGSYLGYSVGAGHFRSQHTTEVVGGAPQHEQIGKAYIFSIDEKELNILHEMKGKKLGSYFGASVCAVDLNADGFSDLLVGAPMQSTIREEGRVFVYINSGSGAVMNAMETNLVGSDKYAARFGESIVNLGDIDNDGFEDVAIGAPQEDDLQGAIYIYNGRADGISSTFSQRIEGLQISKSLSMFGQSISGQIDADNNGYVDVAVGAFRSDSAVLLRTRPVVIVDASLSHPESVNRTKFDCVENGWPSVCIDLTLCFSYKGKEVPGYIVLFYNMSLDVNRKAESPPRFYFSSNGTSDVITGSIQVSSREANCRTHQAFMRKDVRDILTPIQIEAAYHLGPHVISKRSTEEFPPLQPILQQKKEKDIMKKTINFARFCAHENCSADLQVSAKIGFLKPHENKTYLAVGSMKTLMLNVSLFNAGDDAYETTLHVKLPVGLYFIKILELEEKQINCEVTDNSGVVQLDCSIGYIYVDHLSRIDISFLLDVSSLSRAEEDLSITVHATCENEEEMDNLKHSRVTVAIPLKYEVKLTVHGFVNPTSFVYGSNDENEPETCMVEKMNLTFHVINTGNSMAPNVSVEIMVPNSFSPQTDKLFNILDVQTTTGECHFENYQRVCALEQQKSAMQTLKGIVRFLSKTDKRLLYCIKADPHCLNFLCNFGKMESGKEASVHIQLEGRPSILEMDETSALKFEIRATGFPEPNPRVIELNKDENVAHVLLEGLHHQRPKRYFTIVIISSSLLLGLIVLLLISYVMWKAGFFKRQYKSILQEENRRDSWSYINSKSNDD
T1 sequence (P05556 21-798): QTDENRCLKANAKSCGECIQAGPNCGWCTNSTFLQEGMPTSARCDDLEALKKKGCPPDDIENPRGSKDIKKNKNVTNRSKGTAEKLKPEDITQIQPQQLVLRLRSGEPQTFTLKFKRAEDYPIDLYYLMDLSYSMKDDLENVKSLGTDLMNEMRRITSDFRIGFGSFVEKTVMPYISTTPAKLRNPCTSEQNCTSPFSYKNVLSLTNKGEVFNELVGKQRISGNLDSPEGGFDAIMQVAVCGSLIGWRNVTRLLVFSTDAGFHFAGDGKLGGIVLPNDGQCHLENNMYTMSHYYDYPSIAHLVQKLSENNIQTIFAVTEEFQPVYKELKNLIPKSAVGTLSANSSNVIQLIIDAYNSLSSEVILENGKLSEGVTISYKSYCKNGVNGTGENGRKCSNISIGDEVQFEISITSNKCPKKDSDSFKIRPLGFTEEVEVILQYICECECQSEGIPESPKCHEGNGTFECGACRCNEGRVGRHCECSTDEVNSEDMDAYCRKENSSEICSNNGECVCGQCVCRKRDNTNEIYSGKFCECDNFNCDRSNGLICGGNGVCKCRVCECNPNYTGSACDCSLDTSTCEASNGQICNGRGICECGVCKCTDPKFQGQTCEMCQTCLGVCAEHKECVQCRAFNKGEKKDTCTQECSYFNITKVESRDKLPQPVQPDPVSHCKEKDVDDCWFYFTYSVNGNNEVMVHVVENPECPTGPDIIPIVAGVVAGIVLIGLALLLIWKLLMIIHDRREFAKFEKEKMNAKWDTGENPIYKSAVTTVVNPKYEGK
Procedure: (§1) For in vitro cell adhesion assays, compounds were dissolved in DMSO to make a series of stock solutions such that a 1:100 dilution in assay buffer would yield the desired final working concentrations in 1% DMSO (vehicle). Human VCAM-1 and ICAM-1 were purchased from R&D Systems (Minneapolis, MN). The Jurkat (VCAM-1 assays) and HSB (ICAM-1 assays) cell lines were obtained from American Type Culture Collection (Manassas, VA) and were maintained in recommended culture media.
(§2) Assays were performed as previously described in 1. Vanderslice, P., Woodside, D. G., Caivano, A. R., Decker, E. R., Munsch, C. L., Sherwood, S. J., Lejeune, W. S., Miyamoto, Y. J., McIntyre, B. W., Tilton, R. G., and Dixon, R. A. (2010) Potent in vivo suppression of inflammation by selectively targeting the high affinity conformation of integrin alpha4beta1. Biochem Biophys Res Commun 400, 619-624; and 2. Vanderslice, P., Biediger, R. J., Woodside, D. G., Brown, W. S., Khounlo, S., Warier, N. D., Gundlach, C. W. t., Caivano, A. R., Bornmann, W. G., Maxwell, D. S., McIntyre, B. W., Willerson, J. T., and Dixon, R. A. (2013) Small molecule agonist of very late antigen-4 (VLA-4) integrin induces progenitor cell adhesion. J Biol Chem 288, 19414-19428. VCAM-1 or ICAM-1 ligand in 50 μL of 50 mM Tris-HCl (pH 7.4), 150 mM NaCl, (TBS) was added to wells of a 96-well plate and allowed to coat overnight at 4° C. To maximize the window to evaluate agonist activity, a sub-optimal coating concentration of ligand was used, typically between 0.5 and 5 μg/mL in 50 μL TBS for VCAM-1 and ICAM-1 respectively. This ligand concentration corresponded approximately to that which would yield≤ 5% adhesion as determined by dose-response curves. Briefly, 2×10^6 cells were labeled for 30 minutes with calcein-AM (Molecular Probes), washed, resuspended in binding buffer, and added to triplicate wells of ligand-coated plates (2×10^5 cells/well) that had been blocked with 2% BSA. After a 30-minute incubation at 37° C., the plates were washed 3 times with binding buffer, the adherent cells were lysed, and fluorescence was measured on a Tecan Safire^2 plate reader. The binding buffer was PBS with 1 mM MgCl2, 50% FBS for α4β1/VCAM-1 assays and PBS with 2 mM MgCl2, 5 mM EGTA, 50% FBS for αLβ2/ICAM-1 assays. EC50 is defined as the concentration of compound required to achieve 50% of the maximal response.

LFA-1 = target: T2, LFA-1 (Homo sapiens, UniProt P05107+P20701); test: Static cell adhesion assay, HSB cells on ICAM-1 (αLβ2/ICAM-1; LFA-1); assay type: cell-based; details: Dose 3 μM, compound and THI0349 at the same concentration; ratio >1 = more potent agonist
T2 construct: The Jurkat (VCAM-1 assays) and HSB (ICAM-1 assays) cell lines were obtained from American Type Culture Collection; endogenous in cells; host or cells: HSB cells (ATCC)
T2 sequence (P20701 26-1170): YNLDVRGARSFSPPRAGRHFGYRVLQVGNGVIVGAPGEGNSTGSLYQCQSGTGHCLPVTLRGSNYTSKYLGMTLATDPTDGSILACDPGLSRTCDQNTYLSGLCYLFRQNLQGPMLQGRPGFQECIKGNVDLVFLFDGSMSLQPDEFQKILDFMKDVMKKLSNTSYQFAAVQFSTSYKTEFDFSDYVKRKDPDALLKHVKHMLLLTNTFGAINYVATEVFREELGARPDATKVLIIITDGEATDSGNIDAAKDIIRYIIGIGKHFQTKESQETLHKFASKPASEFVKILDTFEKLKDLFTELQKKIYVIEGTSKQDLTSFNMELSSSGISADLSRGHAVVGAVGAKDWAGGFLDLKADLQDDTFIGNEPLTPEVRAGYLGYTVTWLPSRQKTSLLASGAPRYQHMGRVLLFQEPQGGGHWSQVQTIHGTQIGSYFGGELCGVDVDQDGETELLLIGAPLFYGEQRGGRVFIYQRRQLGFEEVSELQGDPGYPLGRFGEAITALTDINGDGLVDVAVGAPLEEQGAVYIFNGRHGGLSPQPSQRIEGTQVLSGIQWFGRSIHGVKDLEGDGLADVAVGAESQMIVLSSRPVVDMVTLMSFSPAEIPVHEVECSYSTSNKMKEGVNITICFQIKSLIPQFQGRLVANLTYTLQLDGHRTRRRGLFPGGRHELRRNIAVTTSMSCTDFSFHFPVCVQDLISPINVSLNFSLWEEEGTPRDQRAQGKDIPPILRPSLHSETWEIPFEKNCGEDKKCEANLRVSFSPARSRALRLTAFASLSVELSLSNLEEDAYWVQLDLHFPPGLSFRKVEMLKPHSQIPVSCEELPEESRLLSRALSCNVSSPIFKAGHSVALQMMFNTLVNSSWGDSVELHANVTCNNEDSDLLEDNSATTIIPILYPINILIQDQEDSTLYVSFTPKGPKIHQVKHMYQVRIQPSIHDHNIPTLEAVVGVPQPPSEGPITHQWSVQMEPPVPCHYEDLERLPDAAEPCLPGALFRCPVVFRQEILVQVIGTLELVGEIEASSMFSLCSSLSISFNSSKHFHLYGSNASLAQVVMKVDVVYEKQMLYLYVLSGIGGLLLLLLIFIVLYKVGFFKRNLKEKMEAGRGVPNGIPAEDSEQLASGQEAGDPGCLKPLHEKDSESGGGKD
T2 sequence (P05107 23-769): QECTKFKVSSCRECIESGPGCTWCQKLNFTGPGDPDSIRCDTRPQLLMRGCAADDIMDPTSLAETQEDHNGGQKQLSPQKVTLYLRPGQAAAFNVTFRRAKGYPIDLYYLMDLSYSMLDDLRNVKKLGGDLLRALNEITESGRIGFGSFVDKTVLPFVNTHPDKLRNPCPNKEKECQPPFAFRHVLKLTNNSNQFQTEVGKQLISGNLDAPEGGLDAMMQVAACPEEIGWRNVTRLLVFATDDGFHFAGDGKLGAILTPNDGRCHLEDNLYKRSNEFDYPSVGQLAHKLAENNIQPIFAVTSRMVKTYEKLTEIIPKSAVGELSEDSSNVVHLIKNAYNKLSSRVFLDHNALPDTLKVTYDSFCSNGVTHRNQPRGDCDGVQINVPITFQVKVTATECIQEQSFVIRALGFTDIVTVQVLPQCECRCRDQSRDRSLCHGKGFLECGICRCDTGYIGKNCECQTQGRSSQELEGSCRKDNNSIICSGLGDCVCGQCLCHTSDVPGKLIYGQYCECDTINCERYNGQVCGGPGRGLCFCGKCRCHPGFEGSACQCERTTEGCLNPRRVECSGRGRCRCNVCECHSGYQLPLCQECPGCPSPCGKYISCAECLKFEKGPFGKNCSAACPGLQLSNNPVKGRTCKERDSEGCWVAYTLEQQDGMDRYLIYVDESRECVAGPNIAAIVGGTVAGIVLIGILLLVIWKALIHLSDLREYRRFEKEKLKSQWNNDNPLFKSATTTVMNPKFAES
Procedure: as §1, §2
THI0019 and THI0349 (average 11 μM) reported values here were obtained under the assay conditions reported herein and ran higher in the presence of serum than those values under different assay conditions. […] Relative to THI0019 (average 33 μM) as a control against CS1, the ratio of (compound activity/control) is as follows: Group I< or =1. Group II at least a ratio of >1 up to 2× that of THI0019 ran on the same plate; Group III is >2× of THI0019 but less than 5×; and Group IV>5× of THI0019 (with an upper limit of approximately 200 mM). In relation to LAD (Leukocyte Adhesion Deficiency), LFA-1 ratios are determined by dividing the relative fluorescence units (RFU) of each compound over that of the reference standard of THI0349, (RFU Compound/RFU of THI0349). Against LFA-1, the signal for THI0349 at 3 μM was compared to the claimed compounds at the same concentration.

Row | Structure (SMILES) | Average Ratio Compound to THI0019 (Activity against CS1) (α4β1/VCAM-1) | LAD Raw Fluorescence Units against LFA-1; Ratio of raw counts Compound/THI0349 (LFA-1)
1 | COc1cccc(CN(Cc2ccc(N(C)C)cc2)C(=O)OCCN2CC(=O)N(CCOC(=O)N(Cc3ccc(N(C)C)cc3)Cc3cccc(OC)c3)CC2=O)c1 [(2,5-dioxopiperazine-1,4-diyl)bis(ethane-2,1-diyl) bis(4-(dimethylamino)benzyl (3-methoxybenzyl)carbamate)] | Group I (Group I< or =1) | 7.8 fold increased response
2 | COc1ccc(CN(Cc2ccc(OC)cc2)C(=O)CN2CCN(Cc3cccc(OC)c3)CC2=O)cc1 [N,N-bis(4-methoxybenzyl)-2-(4-(3-methoxybenzyl)-2-oxopiperazin-1-yl)acetamide] | Group IV (Group IV>5× of THI0019 (with an upper limit of approximately 200 mM)) | 1.1 fold increased response
3 | COc1ccc(CN(Cc2ccc(OC)cc2)C(=O)CCCCN2CCN(C(=O)OCc3ccccc3)CC2)cc1 [benzyl 4-(5-(bis(4-methoxybenzyl)amino)-5-oxopentyl)piperazine-1-carboxylate] | Group II (Group II at least a ratio of >1 up to 2× that of THI0019 ran on the same plate) | 4.3 fold increased response
4 | COc1cccc(CN(Cc2cccc(OC)c2)C(=O)OCCN2CC(=O)N(CCOC(=O)N(Cc3cccc(OC)c3)Cc3cccc(OC)c3)CC2=O)c1 [(2,5-dioxopiperazine-1,4-diyl)bis(ethane-2,1-diyl) bis(bis(3-methoxybenzyl)carbamate)] | Group I (Group I< or =1) | 3.4 fold increased response
5 | O=C1CN(CCOC(=O)N(Cc2cccs2)Cc2cccs2)C(=O)CN1CCOC(=O)N(Cc1cccs1)Cc1cccs1 [(2,5-dioxopiperazine-1,4-diyl)bis(ethane-2,1-diyl) bis(bis(thiophen-2-ylmethyl)carbamate)] | Group II (Group II at least a ratio of >1 up to 2× that of THI0019 ran on the same plate) | 2 fold increased response
6 | COc1ccc(CN(Cc2ccc(O)cc2)C(=O)CN2CCN(C(=O)OCc3ccccc3)CC2)cc1 [benzyl 4-(2-((4-hydroxybenzyl)(4-methoxybenzyl)amino)-2-oxoethyl)piperazine-1-carboxylate] | Group II (Group II at least a ratio of >1 up to 2× that of THI0019 ran on the same plate) | 1.3 fold increased response
7 | COc1ccc(CN(CC(C)C)C(=O)CN2CC(=O)N(CC(=O)N(Cc3ccc(OC)cc3)CC(C)C)CC2=O)cc1 [2,2′-(2,5-dioxopiperazine-1,4-diyl)bis(N-isobutyl-N-(4-methoxybenzyl)acetamide)] | Group III (Group III is >2× of THI0019 but less than 5×) | 0.15 fold response
8 | COc1ccc(CCOC(=O)N2CCN(CC(=O)N(Cc3ccc(OC)cc3)Cc3ccc(OC)cc3)CC2)cc1 [4-methoxyphenethyl 4-(2-(bis(4-methoxybenzyl)amino)-2-oxoethyl)piperazine-1-carboxylate] | Group II (Group II at least a ratio of >1 up to 2× that of THI0019 ran on the same plate) | 4.6 fold increased response
9 | COc1ccc(CN(Cc2ccc(OC)cc2)C(=O)CCCN2CCN(C(=O)OCc3ccccc3)CC2)cc1 [benzyl 4-(4-(bis(4-methoxybenzyl)amino)-4-oxobutyl)piperazine-1-carboxylate] | Group I (Group I< or =1) | 3 fold increased response
